The values below come from patent US20250353839A1, “POLYMORPH OF BENZO[C]CHROMAN COMPOUND, PREPARATION METHOD THEREFOR AND USE THEREOF” (Reistone Biopharma Company Limited, priority 2022, published 2025).

The nature of data set [1]: Stability (influence factor) test of free base crystal form E, HPLC and XRPD. In kind it is physicochemical. The conditions noted are these: for related substances (impurities) by HPLC versus initial: different days. As for the experimental part:
(§1) Test conditions for the instruments used in experiments of the present disclosure: • 1. X-ray Powder Diffraction, XRPD • Instrument type: Malver Panalytical Aeris X-ray powder diffractometer • Ray: monochromatic Cu-Kα ray (λ=1.54188) • Scanning mode: θ/2θ, Scanning range (2θ range): 3.5-50° • Voltage: 40 kV, Electric current: 15 mA • 2. Differential Scanning calorimetry, DSC • Instrument type: TA DSC250 • Purge gas: Nitrogen; Nitrogen purge rate: 50 mL/min • Heating rate: 10° C./min • Temperature range: 25° C.-300° C. • 3. Thermogravimetric Analysis, TGA • Instrument type: TA TGA550 • Purge gas: Nitrogen; Nitrogen purge rate: 20 ml/min • Heating rate: 10° C./min • Temperature range: 30° C.-350° C. 4. Dynamic vapor sorption (DVS) • Using SMS Intrinsic PLUS, the detection is performed at 25° C., with humidity change of 50%-0%-90% with a step size of 10%, in which the criteria for judging is that the mass change dM/dT for each gradient is less than 0.002%, TMAX is 360 min, and two cycles are performed. • 5. High performance liquid chromatography (HPLC) described in the stability test of the crystal forms of the present disclosure is determined on Agilent 1260 Infinity II.
In the content detection method by the high performance liquid chromatography described in the present disclosure, HPLC conditions are as follows: chromatographic column, Agilent Eclipse Plus C18 4.6 mm*150 mm, 3.5 μm; mobile phase, A-10 mmol/L solution of sodium dihydrogen phosphate (pH 8.0), and B-ACN; flow rate, 1.0 ml/min; wavelength, 210 nm.
In the related substances detection method by the high performance liquid chromatography described in Example 8 of the present disclosure, HPLC conditions are as follows: chromatographic column, Agilent Eclipse Plus C18 4.6 mm*150 mm, 3.5 μm; mobile phase, A-10 mmol/L solution of ammonium acetate, and B-ACN; flow rate, 1.0 ml/min; wavelength, 210 nm.
It is determined whether temperature and humidity have an influence on the stability of free base crystal form E of the compound of formula I.
The free base crystal form E was placed in a stabilizing chamber […] and subjected to influence factor tests using a series of temperature and humidity combinations. After being placed for different days under light and various temperature and humidity conditions, the samples were taken out. The related substances (impurities) were detected by high performance liquid chromatography.
The samples taken out on the last day under light and various temperature and humidity conditions were subjected to XRPD detection, showing that the free base crystal form E had no change and had good stability.

Data set [2] in a line: Dynamic vapor sorption (DVS) hygroscopicity, with XRPD before and after. It is filed as physicochemical. To be noted: for weight gain by hygroscopicity: DVS; for crystal form before and after DVS detection (XRPD): XRPD redetermined after DVS. The protocol: as §1
The mark [3] stands for this setting: accelerated experimental conditions (80% RH).
Setting [4] is: normal storage conditions (25° C., 60% RH).

For the compound `N#Cc1ccc2c(c1)COc1cc(C[C@@H](C#N)NC(=O)[C@@H]3CNCCCO3)c(F)cc1-2` [free base crystal form E], the “Content (%) of the compound of formula I” value in data set [1] (0 day) worked out at 97.45%; in data set [1] (0.5 ICH (light)), 96.07%; in data set [1] (1 ICH (light)), 94.52%; in data set [1] (25° C. RH 92%-1 week) it was 97.29%; in data set [1] (25° C. RH 92%-2 weeks) it was 97.5%; in data set [1] (40° C. RH 75%-1 week), 97.36%. Further, the “Content (%) of the compound of formula I” value in data set [1] (40° C. RH 75%-2 weeks) amounted to 97.51%; in data set [1] (60° C.-1 week), 97.25%; in data set [1] (60° C.-2 weeks), 97.55%. In addition, the “related substances (impurities) by HPLC versus initial” value in data set [1] (light conditions) was “impurities increased”; in data set [1] (various temperature and humidity conditions), “no significant increase or only a slight increase”. For the same compound, the “crystal form after stability test (XRPD)” value in data set [1] (samples of the last day under light and various temperature and humidity conditions) is “had no change”.

As to `N#Cc1ccc2c(c1)COc1cc(C[C@@H](C#N)NC(=O)[C@@H]3CNCCCO3)c(F)cc1-2` [crystal form D], the “weight gain by hygroscopicity” value is “approximately 0.76%” in data set [2] (setting [3]), “approximately 0.84%” in data set [2] (extreme conditions (90% RH)) and “approximately 0.64%” in data set [2] (setting [4]). In addition, the “crystal form before and after DVS detection (XRPD)” value in data set [2] is on record as “did not change”.

For the compound `N#Cc1ccc2c(c1)COc1cc(C[C@@H](C#N)NC(=O)[C@@H]3CNCCCO3)c(F)cc1-2` [crystal form C], the entries for the “weight gain by hygroscopicity” value in data set [2] (setting [3]), in data set [2] (extreme conditions (90% RH)) and in data set [2] (setting [4]) were “approximately 0.89%”, “approximately 1.16%” and “approximately 0.65%”, respectively. For the same compound, the “crystal form before and after DVS detection (XRPD)” value in data set [2] is “did not change”.

For `N#Cc1ccc2c(c1)COc1cc(C[C@@H](C#N)NC(=O)[C@@H]3CNCCCO3)c(F)cc1-2` [crystal form B], the “weight gain by hygroscopicity” value was “approximately 1.60%” in data set [2] (setting [3]), “approximately 3.87%” in data set [2] (extreme conditions (90% RH)) and “approximately 0.93%” in data set [2] (setting [4]). Moreover, the “crystal form before and after DVS detection (XRPD)” value in data set [2] is on record as “did not change”.

On to `N#Cc1ccc2c(c1)COc1cc(C[C@@H](C#N)NC(=O)[C@@H]3CNCCCO3)c(F)cc1-2` [crystal form A], for which the “weight gain by hygroscopicity” value in data set [2] (setting [3]) is listed as “approximately 5.39%”. In data set [2], the “crystal form before and after DVS detection (XRPD)” value is listed as “did not change”.
